Assay results taken from US20100256357A1, “HETEROCYCLES USEFUL AS INHIBITORS OF CARBONIC ANHYDRASE” (Agouron Pharmaceuticals, Inc., priority 2006, published 2010).
Read-outs that look alike come from different tables or passages of the source. Each block holds one compound with its values, some of them ahead of it.

Columns and labels:
human CA-IV = molecular target: T1, human CA-IV (Homo sapiens, UniProt P22748); assay: Carbonic Anhydrase-IV (CA-IV) Fluorescence Polarization Assay-IC50 Determination; assay type: binding; conditions: read-out: IC50_CAIV
T1 construct: made in house; host or cells: Escherichia coli BL21(DE3)
Method: Carbonic Anhydrase-IV (CA-IV) Fluorescence Polarization Assay-IC50 Determination
These cells were grown in Luria broth (LB) media (Biomyx) supplemented with 800 uM ZnCl2 at 37° C. until an O.D.600 of 0.7, at which point the cells were induced with 100 uM isopropyl-beta-D-thiogalactopyranoside (IPTG) for 20 hours at 20° C. The frozen pellet was resuspended in 50mM 2-morpholinoethanesulfonic acid (MES) at pH 6.0, 100 mM NaCl, 800 uM ZnCl2 and EDTA-Free protease inhibitors (Roche). The cells were lysed with a microfluidizer, the lysate was spun at 40,000 rpm for 45 minutes at 4° C., and the soluble fraction was dialyzed overnight at 4° C. in 50 mM MES pH 6.0, and 100 mM NaCl. The soluble fraction was then put over a 100 ml SP-Sepharose High Performance (GE Healthcare) column and eluted with a 50 mM MES pH 6.0, 750 mM NaCl gradient. The peak fractions were then concentrated, via an Amicon Ultra-4 10,000 MWCO (Millipore) spin column to 2.0 mL and loaded onto a Sephacryl S-100 High Resolution (GE Healthcare) column in 25 mM tris(hydroxymethyl)aminomethane hydrochloride (Tris-HCl) pH 7.0, and 100 mM NaCl. The peak fractions were then concentrated, via an Amicon Ultra-4 10,000 MWCO (Millipore) spin column, to 7.0 mg/mL and left exposed at room temperature overnight. […] T.; et al. Carbonic Anhydrase Inhibitors. Med. Res. Rev. […]
Assays were conducted in a final volume of 100 μL in 50 mM Tris/HCl (pH 7.6), 100 mM Na2SO4 and 0.005% Tween-20 in a 96-well black assay plate.

human CA-II = molecular target: T2, human CA-II (Homo sapiens, UniProt P00918); assay: Carbonic Anhydrase-II (CA-II) Fluorimetric Assay-IC50 Determination; assay type: biochemical; conditions: for inhibition at 0.1 µM: at 100 nM (c7); for inhibition at 0.1 µM / inhibition at 0.01 µM: read-out: CA-II % inhibition at concentration of column 7; for inhibition at 0.01 µM: at 10 nM (c7)
T2 construct: purchased Sigma-Aldrich C6165
Method: Carbonic Anhydrase-II (CA-II) Fluorimetric Assay-IC50 Determination
Compounds were diluted in DMSO at the concentration of 1 mM, then 50 μM and transferred to a 96-well plate for further dilutions (1:3 dilution, 11 points) in duplicate. Highest final concentration of compound in this CA-II Fluorimetric assay is 1 μM. Assays were conducted in a final volume of 100 μL in 50 mM Tris/HCl (pH 7.6), 100 mM Na2SO4 and 0.005% Tween-20 in a 96-well black assay plate. Fluorescein diacetate was used as the substrate. Enzyme inhibition was determined by pipetting 8 μL of human CA-II (5 nM, from Sigma-Aldrich, product #: C6165) into assay plate contained 2 μL of compound and 2 μL of substrate (10 μM) in 88 μL of assay buffer. The rate of the hydrolysis of fluorescein diacetate were measured spectrophometrically at 488 nm (excitation), 538 nm (emission) and 530 nm (cutoff) using a Molecular Devices SpectraMax M2 fluorescence reader at 25° C.

[1] = given instead of Kd (ND), read-out: CA-II IC50
[2] = Kd ND, IC50 given instead, read-out: CA-II IC50 (where Kd is ND)

T1 sequence (P22748 19-284 limits assumed): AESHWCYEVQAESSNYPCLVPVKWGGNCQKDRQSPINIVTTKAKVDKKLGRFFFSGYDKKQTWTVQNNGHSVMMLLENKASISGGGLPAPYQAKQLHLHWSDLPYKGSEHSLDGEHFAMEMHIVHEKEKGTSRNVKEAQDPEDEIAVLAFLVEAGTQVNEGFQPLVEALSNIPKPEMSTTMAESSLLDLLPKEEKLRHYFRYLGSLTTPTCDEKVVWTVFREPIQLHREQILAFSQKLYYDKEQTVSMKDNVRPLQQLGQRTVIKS

IC50 (human CA-IV): 281 nM
SMILES: NS(=O)(=O)c1ccc(-n2nc(CNCC3CCCCC3)cc2Cc2ccc(Cl)cc2)cc1 [QQ-1b, 4-[5-(4-chlorobenzyl)-3-{[(cyclohexylmethyl)amino]methyl}-1H-pyrazol-1-yl]benzenesulfonamide]

IC50 (human CA-IV): 354 nM
SMILES: NS(=O)(=O)c1ccc(-n2nc(CN3CC=CCC3)cc2Cc2ccccc2)c(F)c1 [QQ-1g, 4-[5-benzyl-3-(3,6-dihydropyridin-1(2H)-ylmethyl)-1H-pyrazol-1-yl]-3-fluorobenzenesulfonamide]

IC50 (human CA-IV): 114 nM
SMILES: Cc1cccc(Cc2cc(CN3CCC(F)(F)C3)nn2-c2ccc(S(N)(=O)=O)cc2F)c1 [PP-1, 4-[3-[(3,3-difluoropyrrolidin-1-yl)methyl]-5-(3-methylbenzyl)-1H-pyrazol-1-yl]-3-fluorobenzenesulfonamide]

IC50 (human CA-IV): 171 nM
SMILES: CCCCN(C)Cc1cc(Cc2ccc(Br)cc2)n(-c2ccc(S(N)(=O)=O)cc2F)n1 [QQ-1f]

IC50 (human CA-IV): 459 nM
SMILES: NS(=O)(=O)c1ccc(-n2nc(C(=O)O)cc2Cc2ccc(Cl)cc2)cc1 [pp-2b, 1-[4-(aminosulfonyl)phenyl]-5-(4-chlorobenzyl]-1H-pyrazole-3-carboxylic acid]

IC50 (human CA-IV): 380 nM
SMILES: CN(CCc1ccccn1)Cc1cc(Cc2ccc(Cl)cc2)n(-c2ccc(S(N)(=O)=O)cc2)n1 [QQ-1c, 4-[5-(4-chlorobenzyl)-3-{[methyl(2-pyridin-2-ylethyl)amino]methyl}-1H-pyrazol-1-yl]benzenesulfonamide]

IC50 (human CA-IV): 480 nM
SMILES: C[C@@H]1CN(Cc2cc(Cc3ccccc3)n(-c3ccc(S(N)(=O)=O)cc3F)n2)C[C@H](C)O1 [QQ-1i, 4-(5-benzyl-3-{[(2R,6S)-2,6-dimethylmorpholin-4-yl]methyl}-1H-pyrazol-1-yl)-3-fluorobenzenesulfonamide]

inhibition at 0.1 µM (human CA-II): 99%
IC50 (human CA-II; [1]): 2.99 nM
SMILES: CCN(CCOC)C(=O)c1nc(Cc2ccccc2)n(-c2ccc(S(N)(=O)=O)cc2)n1 [Example R-34, 1-[4-(aminosulfonyl)phenyl]-5-benzyl-N-ethyl-N-(2-methoxyethyl)-1H-124-triazole-3-carboxamide]

inhibition at 0.01 µM (human CA-II): 96%
SMILES: CC1(c2ccccc2)CN(C(=O)c2nc(Cc3ccccc3)n(-c3ccc(S(N)(=O)=O)cc3)n2)CCO1 (stereo not drawn) [Example R-46, 4-{5-benzyl-3-[(2-methyl-2-phenylmorpholin-4-yl)carbonyl]-1H-124-triazol-1-yl}benzenesulfonamide]

inhibition at 0.1 µM (human CA-II): 100%
IC50 (human CA-II; [1]): 3.13 nM
SMILES: Cc1ccc(CN(C)C(=O)c2nc(Cc3ccccc3)n(-c3ccc(S(N)(=O)=O)cc3)n2)cc1 [Example R-38, 1-[4-(aminosulfonyl)phenyl]-5-benzyl-N-methyl-N-(4-methylbenzyl)-1H-124-triazole-3-carboxamide]

IC50 (human CA-II; [2]): 3 nM
SMILES: CCN(Cc1ccccc1)C(=O)c1nc(Cc2ccccc2)n(-c2ccc(S(N)(=O)=O)cc2)n1 [Example R-102, 1-[4-(aminosulfonyl)phenyl]-N5-dibenzyl-N-ethyl-1H-124-triazole-3-carboxamide]

inhibition at 0.1 µM (human CA-II): 100%
IC50 (human CA-II; [1]): 3.12 nM
SMILES: CCCCN(CCC)C(=O)c1nc(Cc2ccccc2)n(-c2ccc(S(N)(=O)=O)cc2)n1 [Example R-36, 1-[4-(aminosulfonyl)phenyl]-5-benzyl-N-butyl-N-propyl-1H-124-triazole-3-carboxamide]

inhibition at 0.01 µM (human CA-II): 97%
IC50 (human CA-II; [1]): 3.49 nM
SMILES: NS(=O)(=O)c1ccc(-n2nc(C(=O)N3CCC(c4cccnc4)C3)nc2Cc2ccccc2)cc1 (stereo not drawn) [Example R-69, 4-{5-benzyl-3-[(3-pyridin-3-ylpyrrolidin-1-yl)carbonyl]-1H-124-triazol-1-yl}benzenesulfonamide]

inhibition at 0.01 µM (human CA-II): 96%
SMILES: NS(=O)(=O)c1ccc(-n2nc(C(=O)N3CCc4nocc4C3)nc2Cc2ccccc2)cc1 [Example R-57, 4-[5-benzyl-3-(67-dihydroisoxazolo[43-c]pyridin-5(4H)-ylcarbonyl)-1H-124-triazol-1-yl]benzenesulfonamide]

inhibition at 0.01 µM (human CA-II): 95%
SMILES: CC(C)N(CC(O)c1ccccc1)C(=O)c1nc(Cc2ccccc2)n(-c2ccc(S(N)(=O)=O)cc2)n1 (stereo not drawn) [Example R-45, 1-[4-(aminosulfonyl)phenyl]-5-benzyl-N-(2-hydroxy-2-phenylethyl)-N-isopropyl-1H-124-triazole-3-carboxamide]

IC50 (human CA-II; [2]): 3.35 nM
SMILES: CCCN(CC1CCCO1)C(=O)c1nc(Cc2ccccc2)n(-c2ccc(S(N)(=O)=O)cc2)n1 (stereo not drawn) [Example R-95, 1-[4-(aminosulfonyl)phenyl]-5-benzyl-N-propyl-N-(tetrahydrofuran-2-ylmethyl)-1H-124-triazole-3-carboxamide]

inhibition at 0.01 µM (human CA-II): 92%
IC50 (human CA-II; [1]): 3.36 nM
SMILES: NS(=O)(=O)c1ccc(-n2nc(C(=O)N3CCCCC3Cc3ccccc3)nc2Cc2ccccc2)cc1 (stereo not drawn) [Example R-53, 4-(5-benzyl-3-[(2-benzylpiperidin-1-yl)carbonyl]-1H-124-triazol-1-yl)benzenesulfonamide]

inhibition at 0.1 µM (human CA-II): 98%
SMILES: CCCN(C(=O)c1nc(Cc2ccccc2)n(-c2ccc(S(N)(=O)=O)cc2)n1)[C@@H](C)CO [Example R-29, 1-[4-(aminosulfonyl)phenyl]-5-benzyl-N-[(1S)-2-hydroxy-1-methylethyl]-N-propyl-1H-124-triazole-3-carboxamide]

inhibition at 0.01 µM (human CA-II): 96%
SMILES: CN(Cc1nc2ccc(F)cc2[nH]1)C(=O)c1nc(Cc2ccccc2)n(-c2ccc(S(N)(=O)=O)cc2)n1 [Example R-49, 1-[4-(aminosulfonyl)phenyl]-5-benzyl-N-[(6-fluoro-1H-benzimidazol-2-yl)methyl]-N-methyl-1H-124-triazole-3-carboxamide]

inhibition at 0.1 µM (human CA-II): 98%
IC50 (human CA-II; [1]): 3.78 nM
SMILES: CN(CCOc1ccccc1)C(=O)c1nc(Cc2ccccc2)n(-c2ccc(S(N)(=O)=O)cc2)n1 [Example R-42, 1-[4-(aminosulfonyl)phenyl]-5-benzyl-N-methyl-N-(2-phenoxyethyl)-1H-124-triazole-3-carboxamide]

IC50 (human CA-II; [2]): 3.43 nM
SMILES: N#CCCN(C(=O)c1nc(Cc2ccccc2)n(-c2ccc(S(N)(=O)=O)cc2)n1)C1CCCC1 [Example R-74, 1-[4-(aminosulfonyl)phenyl]-5-benzyl-N-(2-cyanoethyl)-N-cyclopentyl-1H-124-triazole-3-carboxamide]

IC50 (human CA-II; [2]): 3.51 nM
SMILES: CC(C)C1CCCCN1C(=O)c1nc(Cc2ccccc2)n(-c2ccc(S(N)(=O)=O)cc2)n1 (stereo not drawn) [Example R-104]

inhibition at 0.01 µM (human CA-II): 95%
SMILES: Cc1cc(CN(C)C(=O)c2nc(Cc3ccccc3)n(-c3ccc(S(N)(=O)=O)cc3)n2)n[nH]1 [Example R-50, 1-[4-(aminosulfonyl)phenyl]-5-benzyl-N-methyl-N-[(5-methyl-1H-pyrazol-3-yl)methyl]-1H-124-triazole-3-carboxamide]

inhibition at 0.01 µM (human CA-II): 97%
SMILES: CCCc1cc(CN(C)C(=O)c2nc(Cc3ccccc3)n(-c3ccc(S(N)(=O)=O)cc3)n2)n[nH]1 [Example R-51, 1-[4-(aminosulfonyl)phenyl]-5-benzyl-N-methyl-N-[(5-propyl-1H-pyrazol-3-yl)methyl]-1H-124-triazole-3-carboxamide]

inhibition at 0.01 µM (human CA-II): 97%
SMILES: CN(CC(C)(O)c1ccccc1)C(=O)c1nc(Cc2ccccc2)n(-c2ccc(S(N)(=O)=O)cc2)n1 (stereo not drawn) [Example R-54, 1-[4-(aminosulfonyl)phenyl]-5-benzyl-N-(2-hydroxy-2-phenylpropyl)-N-methyl-1H-124-triazole-3-carboxamide]

inhibition at 0.01 µM (human CA-II): 90%
SMILES: C[C@@H]([C@@H](O)c1ccccc1)N(C)C(=O)c1nc(Cc2ccccc2)n(-c2ccc(S(N)(=O)=O)cc2)n1 [Example R-47, 1-[4-(aminosulfonyl)phenyl]-5-benzyl-N-[(1S2S)-2-hydroxy-1-methyl-2-phenylethyl]-N-methyl-1H-124-triazole-3-carboxamide]

IC50 (human CA-II; [2]): 3.48 nM
SMILES: CN(CC(F)(F)F)C(=O)c1nc(Cc2ccccc2)n(-c2ccc(S(N)(=O)=O)cc2)n1 [Example R-101, 1-[4-(aminosulfonyl)phenyl]-5-benzyl-N-methyl-N-(222-trifluoroethyl)-1H-124-triazole-3-carboxamide]
